Several values for one entry are separate records, joined by “and”; a condition that tells them apart may be missing. Equal values may be shown once. Entries after “also recorded” stand apart in the source; their conditions may differ.
Experiments:
hP2X1R = target: T1, hP2X1R (Homo sapiens, UniProt P51575); assay: Calcium influx assay, 1321N1 astrocytoma cells, ATP EC80; assay type: cell-based; settings: 1321-N1, read-out: % inhibition ± SD at 10 μM, hP2X1R, 10 μM antagonist, ATP 100 nM
T1 sequence (P51575 51-338 limits assumed): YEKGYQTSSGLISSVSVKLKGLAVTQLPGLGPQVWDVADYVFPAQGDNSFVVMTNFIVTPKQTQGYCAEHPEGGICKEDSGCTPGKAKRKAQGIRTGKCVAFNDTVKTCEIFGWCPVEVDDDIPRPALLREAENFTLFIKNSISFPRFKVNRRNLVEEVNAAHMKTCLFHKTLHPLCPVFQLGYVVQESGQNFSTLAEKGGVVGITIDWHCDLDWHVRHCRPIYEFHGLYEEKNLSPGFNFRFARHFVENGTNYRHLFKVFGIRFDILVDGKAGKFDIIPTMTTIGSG
Description: . For 1321N1 astrocytoma cells stably expressing the human, rat, or mouse P2X7Rs, or hP2X2Rs or hP2X4Rs, the fluorescent Ca^2+-chelating dye Fluo-4 acetoxymethyl ester (Fluo-4 AM, Thermo Fisher Scientific, Dreieich, Germany) was used. For 1321N1 astrocytoma cell lines recombinantly expressing the hP2X1Rs or hP2X3Rs, the FLIPR® Calcium 5 Assay Kit (Molecular Devices, San José, CA, USA) was employed. Human, rat, and mouse P2X7Rs as well as hP2X1Rs, hP2X2Rs, hP2X3Rs, and hP2X4Rs were recombinantly expressed in 1321N1 astrocytoma cells using a retroviral expression system[72]–[74].
On the first day, 45,000 cells per well (30,000 cells for the human P2X3 receptor-expressing cells) were seeded into a 96-well polystyrene microplate with a black, flat bottom in a final volume of 200 µL. […] After 30 min of incubation with antagonist, the plates were measured using a fluorescence imaging plate reader NOVOstar (BMG Labtech GmbH, Offenburg, Germany) at an excitation wavelength of 485 nm and an emission wavelength of 520 nm, for 30 s at 0.4 s intervals. Calcium influx measurements were then initiated by automatic addition of 20 µL of agonist solution by the plate reader’s pipetting device. Data were analyzed using Microsoft Excel and GraphPad Prism (Version 8.0, San Diego, CA, USA). EC80 and IC50 values were calculated using nonlinear regression with a sigmoidal dose-response equation.

hP2X3R = target: T2, hP2X3R (Homo sapiens, UniProt P56373, S15V); assay: as above; assay type: cell-based
T2 construct: expressed in transfected cells; host or cells: 1321N1 astrocytoma cells, retroviral expression system
T2 sequence (P56373 1-397 S15V): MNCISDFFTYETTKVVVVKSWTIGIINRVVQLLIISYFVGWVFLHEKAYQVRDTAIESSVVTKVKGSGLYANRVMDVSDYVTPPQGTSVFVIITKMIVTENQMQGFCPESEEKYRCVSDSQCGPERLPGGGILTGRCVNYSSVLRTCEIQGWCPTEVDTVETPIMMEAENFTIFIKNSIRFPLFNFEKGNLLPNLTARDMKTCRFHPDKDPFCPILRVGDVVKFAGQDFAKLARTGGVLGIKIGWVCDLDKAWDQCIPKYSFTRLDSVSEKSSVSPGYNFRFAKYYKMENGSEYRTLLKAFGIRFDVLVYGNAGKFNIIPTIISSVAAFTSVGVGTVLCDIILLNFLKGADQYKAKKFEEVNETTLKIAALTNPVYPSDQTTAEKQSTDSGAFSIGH
Description: For 1321N1 astrocytoma cells stably expressing the human, rat, or mouse P2X7Rs, or hP2X2Rs or hP2X4Rs, the fluorescent Ca^2+-chelating dye Fluo-4 acetoxymethyl ester (Fluo-4 AM, Thermo Fisher Scientific, Dreieich, Germany) was used. For 1321N1 astrocytoma cell lines recombinantly expressing the hP2X1Rs or hP2X3Rs, the FLIPR® Calcium 5 Assay Kit (Molecular Devices, San José, CA, USA) was employed. Human, rat, and mouse P2X7Rs as well as hP2X1Rs, hP2X2Rs, hP2X3Rs, and hP2X4Rs were recombinantly expressed in 1321N1 astrocytoma cells using a retroviral expression system[72]–[74].
On the first day, 45,000 cells per well (30,000 cells for the human P2X3 receptor-expressing cells) were seeded into a 96-well polystyrene microplate with a black, flat bottom in a final volume of 200 µL. After overnight incubation at 37 °C and 10% CO2 (5% CO2 for the human P2X3R-expressing cell line), the medium was removed by inverting the plate, and the cells were loaded with dye solution. Hanks’ balanced salt solution (HBSS, Thermo Fisher Scientific, Dreieich, Germany) was used as the assay buffer for human P2X1R, P2X2R, P2X3R, and P2X4R. For the P2X7Rs, a different assay buffer was used: 150 mM sodium-glutamate, 5 mM KCl, 0.5 mM CaCl2, 0.1 mM MgCl2, 10 mM D-glucose, 25 mM 4-(2-hydroxyethyl)-1-piperazineethanesulfonic acid (HEPES), pH 7.4. The dye solutions were freshly prepared. The Fluo-4 AM solution contained 3 µM of Fluo-4 AM in assay buffer and 1% of the non-ionic detergent Pluronic F-127® (Sigma-Aldrich, Taufkirchen, Germany). The Calcium 5 dye, used for hP2X1Rs and hP2X3Rs, was prepared in HBSS buffer. Cells were loaded with Fluo-4 AM and incubated for 1 h at room temperature with gentle shaking (100 rpm), while those loaded with the Calcium 5 dye were incubated for 1 h at 37 °C. After incubation, the dye solution was carefully removed from the plate, and buffer was added to the cells for the evaluation of agonists. […] The agonist solution was prepared in a 96-well transparent plate, obtaining the respective EC80 values. As a control, assay buffer without the test compound was used. After 30 min of incubation with antagonist, the plates were measured using a fluorescence imaging plate reader NOVOstar (BMG Labtech GmbH, Offenburg, Germany) at an excitation wavelength of 485 nm and an emission wavelength of 520 nm, for 30 s at 0.4 s intervals. Calcium influx measurements were then initiated by automatic addition of 20 µL of agonist solution by the plate reader’s pipetting device. Data were analyzed using Microsoft Excel and GraphPad Prism (Version 8.0, San Diego, CA, USA). EC80 and IC50 values were calculated using nonlinear regression with a sigmoidal dose-response equation.

hP2X4R = tested on: T3, hP2X4R; assay: TEVC current traces with co-applied antagonist in Xenopus oocytes; assay type: cell-based, human; settings: 300 µM ATP, 100 nM antagonist
T3 construct: expressed in transfected cells; host or cells: Xenopus laevis oocytes (cRNA, pNKS2 vector)

SMILES | inhibition at 10 µM (hP2X1R) | inhibition at 10 µM (hP2X3R; 1321-N1, read-out: % inhibition ± SD at 10 μM, hP2X3R, 10 μM antagonist, ATP 100 nM) | hP2X3R inhibition at 10 μM (hP2X3R; Log(c) M -5, single values, 10 µM, in % (unit assumed)) | hP2X3R inhibition, IC50 curve (hP2X3R; Log(c) M -6, in %) | fold more potent at the hP2X7R versus the hP2X3R (hP2X3R; calcium influx IC50 ratio) | IC50 (hP2X3R; calcium influx, estimated) | antagonism of the hP2X4R (hP2X4R)
O=C(NNc1ccccc1Cl)C12CC3CC(CC(C3)C1)C2 [UB-ALT-P30, reference compound] | 36 ± 8% | 86 ± 9% | 94.9053 and 93.1871 and 60.8032 and 85.3564 and 91.979 and 90.698 and 90.7697 and 79.3438 | 58.8384 and 67.0023 and 59.1901 and 77.3652 | 40 fold | 707 ± 185 nM | 
CC12CC3CC1(C)C1(C)CC3(C(=O)NNc3ccccc3Cl)CC21C [UB-MBX-46] |  |  |  |  |  |  | virtually no antagonism; also recorded: negligible

Source: article PMC12436592 (Nature Communications, 2025)
